Literature values as cited in paper PMC12030253, “New Temporin A Analogues Modified in Positions 1 and 10—Synthesis and Biological Studies” (Pharmaceutics, 2025).
Read-outs that look alike come from different tables or passages of the source. Ends that are not written are not given here.

Tests used:
Parameters in all cases: method as in PMID 38931840
BALB 3T3 cells = settings: cited from earlier work; for CC50: BALB 3T3 cells, NRU
MCF-12F cells = settings: MTT, 72 h, non-tumorigenic cells; read-out: Mean IC50 ± SD MCF-12F; cited from earlier work
MCF-7 cells = settings: cited from earlier work
MDA-MB-231 cells = settings: cited from earlier work
[1] = tested on: Bacillus subtilis NBIMCC 3562; settings: cited from earlier work; for Percentage-based inhibition compared to antibiotic, B. subtilis 3562: chloramphenicol taken as 100%; for Inhibition zone B. subtilis 3562: 20 µL per disk
[2] = tested on: Arthrobacter oxydans NBIMCC 9333; settings: cited from earlier work; for Percentage-based inhibition compared to antibiotic, A. oxydans 9333: gentamicin taken as 100%; for Inhibition zone A. oxydans 9333: 20 µL per disk
[3] = tested on: Escherichia coli NBIMCC 8785; settings: 20 µL per disk, cited from earlier work
[4] = tested on: Pseudomonas aeruginosa NBIMCC 3700; settings: cited from earlier work; for Percentage-based inhibition compared to antibiotic, P. aeruginosa 3700: gentamicin taken as 100%; for Inhibition zone P. aeruginosa 3700: 20 µL per disk
[5] = tested on: Bacillus subtilis NBIMCC 3562; settings: broth dilution, 0-320 µg/mL, 24 h; cited from earlier work
[6] = tested on: Escherichia coli NBIMCC 8785; settings: broth dilution, 0-320 µg/mL, 24 h; cited from earlier work
[7] = tested on: Arthrobacter oxydans NBIMCC 9333; settings: broth dilution, 0-320 µg/mL, 24 h; cited from earlier work
[8] = tested on: Pseudomonas aeruginosa NBIMCC 3700; settings: broth dilution, 0-320 µg/mL, 24 h; cited from earlier work
[9] = tested on: Candida albicans NBIMCC 74; settings: broth dilution, 0-320 µg/mL, 24 h; cited from earlier work

FLPLIGRVL-S-GILNH2 (FLPLIGRVLSGIL-NH2) [DTA, parent peptide Temporin A, C-terminal amide]
CC50 (BALB 3T3 cells; irradiated 2.4 J/cm^2, read-out: Mean CC50 ± SD +Irr): 105 ± 4.88 µM | CC50 (BALB 3T3 cells; without irradiation, read-out: Mean CC50 ± SD −Irr): 106 ± 4.18 µM | PIF (Photo-Irritation Factor) (BALB 3T3 cells; PIF < 2 not phototoxic): 1.01 | IC50 (MCF-12F cells): 139 ± 8.36 µM | IC50 (MCF-7 cells; MTT, 72 h, read-out: Mean IC50 ± SD MCF-7): 73.2 ± 3.36 µM | Selectivity Index (SI) MCF-7 (MCF-7 cells; SI = IC50 (MCF-12F)/IC50 (MCF-7)): 1.90 | IC50 (MDA-MB-231 cells; MTT, 72 h, read-out: Mean IC50 ± SD MDA-MB-231): 115 ± 4.04 µM | Selectivity Index (SI) MDA-MB-231 (MDA-MB-231 cells; SI = IC50 (MCF-12F)/IC50 (MDA-MB-231)): 1.20 | Percentage-based inhibition compared to antibiotic, B. subtilis 3562 ([1]; 1.4 mg/mL): 33.8% | Percentage-based inhibition compared to antibiotic, B. subtilis 3562 ([1]; 10 mg/mL): 33.8% | Inhibition zone B. subtilis 3562 ([1]; peptide 1.4 mg/mL): 8.8 ± 0.3 mm | Inhibition zone B. subtilis 3562 ([1]; peptide 10 mg/mL): 8.8 ± 0.8 mm | Percentage-based inhibition compared to antibiotic, A. oxydans 9333 ([2]; 1.4 mg/mL): 37.8% | Percentage-based inhibition compared to antibiotic, A. oxydans 9333 ([2]; 10 mg/mL): 53.9% | Inhibition zone A. oxydans 9333 ([2]; peptide 1.4 mg/mL): 6.8 ± 0.3 mm | Inhibition zone A. oxydans 9333 ([2]; peptide 10 mg/mL): 9.7 ± 0.6 mm | Inhibition zone E. coli 8785 ([3]; peptide 1.4 mg/mL): 0 mm | Inhibition zone E. coli 8785 ([3]; peptide 10 mg/mL): 0 mm | Percentage-based inhibition compared to antibiotic, P. aeruginosa 3700 ([4]; 1.4 mg/mL): 45.9% | Percentage-based inhibition compared to antibiotic, P. aeruginosa 3700 ([4]; 10 mg/mL): 54.7% | Inhibition zone P. aeruginosa 3700 ([4]; peptide 1.4 mg/mL): 7.8 ± 0.3 mm | Inhibition zone P. aeruginosa 3700 ([4]; peptide 10 mg/mL): 9.3 ± 0.6 mm | MIC B. subtilis 3562 [5]: 80 µg/mL | MIC E. coli 8785 [6]: 320 µg/mL | MIC A. oxydans 9333 [7]: 80 µg/mL | MIC P. aeruginosa 3700 [8]: 320 µg/mL | MIC C. albicans 74 [9]: 320 µg/mL
